The results in this text go back to patent US8497075B2, “Methods of identifying a modulator that inhibits the binding between Epstein-Barr virus induced receptor 2 and cholesterol derived ligands” (Novartis AG, priority 2008, dated 2013).

For assay [1], the system named is MAP/ERK signaling pathway (p44/42 MAP kinase). Kind of assay: Western blot of MAP/ERK phosphorylation, EBI2 expressing CHO cell line. The format is cell-based, Chinese hamster. Particulars: 5 min after compound addition. The protocol: Cells (E2=CHO/AEQ/Gqi5/hEBI2) were seeded at 2×10^5 cell/well in a 12 well plate (TPP #92012) and incubated at 37° C./5% CO2 overnight. The next day medium was removed and cells were starved in serum-free medium for 4 h. Subsequently compound was added for 5 min at RT before cells were lysed (70 ul, 0.5% Triton-X100, 300 mM NaCl, 50 mM Tris pH7.5, Complete™ protease inhibitor cocktail Roche #04693124001). Cell lysates were resolved by gradient SDS-PAGE (NuPage™4-12%, #NP0322Box), transferred by semi-dry blotting to nitrocellulose (Invitrogen, #LC2001) and probed with a phospho p42/44 MAPK (T202/Y204) rabbit mAb (Cell Signalling #4376S). After treatment with a secondary goat anti rabbit-HRP (Pierce #41460) antibody the blots were developed for chemiluminescence (SuperSignal West Dura™, Pierce #34075) and visualized using a BioRad GEL DOC™ imaging system.
For orientation: Immunoblotting shows a protein as a band on a membrane.

Assay [2] has as its system mouse bone marrow-derived dendritic cells (wild type). Kind of assay: chemotaxis assay, wild type dendritic cells. The format is cell-based. The protocol:
B cells (RS11846 or EBV-infected human B-cells) or murine bone marrow-derived dendritic cells were washed once with medium and resuspended at 1×10^6/ml. 100 μl of this suspension was added into the wells of the filter plate and gently placed into the receiver plate containing 150 μl of a given compound dilution. The final DMSO concentration was less then 0.1%. After migration for 3 hr at 37° C. in an incubator, the filter plate was carefully removed from the receiver plate and discarded. The migrated cells in the receiver plate were resuspended and transferred into round-bottom 96-well plate, centrifuged and resuspended in 100 μl PBS containing 2% FCS and 0.1% NaN3 (FACS buffer). The input cells (100 μl) were similarly processed. For the calculation of the specific migration, a fixed number of beads (10000; Invitrogen #PCB100)) in 20 μl FACS buffer was added and the suspension was analyzed by flow cytometry using a FACS instrument PAS™ (Partec). Cells were identified based on their forward scatter (FSC) and side scatter (SSC) pattern. Chemotaxis is expressed either as total cell number or as percent of input cells.
In order to generate sufficient numbers of dendritic cells (DC) we isolated bone marrow from wild type and EBI2-deficient mice (Deltagen) and treated them in culture for 7-8 days with murine IL4 and murine GM-CSF. […]

In assay [3] the target is T1, hEBI2 (Homo sapiens, UniProt P32249). Kind of assay: β-arrestin Pathhunter assay. The class given is cell-based. Further details: host or cells: HEK293-BAEA, transient transfection with Fugene6. Particulars: for EC50: HEK293-BAEA transiently transfected with hEBI2-prolink, read-out: EC50, β-arrestin recruitment. From the text:
Several assay technologies (Transfluor™, (Ghosh, R. N., et al. (2005). Quantitative cell-based high-content screening for vasopressin receptor agonists using transfluor technology. J Biomol Screen 10.; Granas, C., at al. (2005). High content screening for G protein-coupled receptors using cell-based protein translocation assays. Comb Chem High Throughput Screen 8.); Pathhunter™, (Hammer, M. M., et al. (2007). A novel enzyme complementation-based assay for monitoring G-protein-coupled receptor internalization. Faseb J, 21; Wehrman, T. S., at al. (2005). Enzymatic detection of protein translocation. Nat Methods 2), Tango™, (Barnea, G., et al. (2008). Here we have applied the Pathhunter™ technology (DiscoverRx) to probe for an interaction of EBI2 with B-arrestin. For that human EBI2 was cloned into the Prolink™ vector (DiscoveRx) for GPCR-prolink fusion protein production. Parental HEK293 cells that stably express β-arrestin2-β-gal-EA fusion protein (HEK293-BAEA) were detached and transiently transfected with hEBI2-prolink vector using Fugene6 transfection reagent in suspension mode. Transfected cells in assay medium (Phenol Red-free DMEM with 10% FBS) were plated into white solid 384 well plates at 15,000 cells/25 μl/well. After overnight incubation, 200 nl of test molecules were transferred into the cell plates by PinTool™ (GNF Systems) followed by 1-2 hour incubation at 37° C., 5% CO2. Flash detection reagents were added at 12.5 μl/well. After 5 min—1 hr room temperature incubation, the cell plates were read on CLIPR™ (Perkin Elmer) or Acquest™ (Molecular Devices) for luminescence signal.

In assay [4] the target is T2, mouse EBI2 receptor (Mus musculus, UniProt Q3U6B2).
T2 construct: expressed in transfected cells; host or cells: CHO-K1 expressing apoaequorin (CHO-Aeq), Gqi5 or Gα16 background
T2 sequence (Q3U6B2 whole entry): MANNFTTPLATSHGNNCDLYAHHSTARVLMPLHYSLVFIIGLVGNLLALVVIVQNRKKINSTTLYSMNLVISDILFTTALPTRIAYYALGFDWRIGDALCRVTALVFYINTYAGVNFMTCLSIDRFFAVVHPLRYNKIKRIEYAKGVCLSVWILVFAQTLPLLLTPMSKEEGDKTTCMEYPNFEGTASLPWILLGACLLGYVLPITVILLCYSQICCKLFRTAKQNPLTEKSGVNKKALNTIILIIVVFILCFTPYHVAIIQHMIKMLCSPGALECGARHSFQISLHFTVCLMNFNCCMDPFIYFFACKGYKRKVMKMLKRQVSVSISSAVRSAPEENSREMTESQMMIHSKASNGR
Kind of assay: aequorin assay, mouse EBI2 CHO-Aeq cells. The class given is cell-based. From the text:
Human EBI2 gene was cloned using RT-PCR from HL-60 cDNA and corresponded to the Genbank accession number NP_004942. The human EBI2 was inserted into the pEFIN3 vector at the EcoRI and XbaI sites in the multiple cloning site. Mouse EBI2 was cloned using RT-PCR from mouse genomic DNA and corresponded to the Genbank accession number Q3U6B2. The mouse EBI2 was inserted into the pEFIN3 vector at the EcoRI and XbaI sites in the multiple cloning site. Plasmids expressing human and mouse EBI2 were stably transfected in CHO-K1 and HEK293 cells expressing the apoaequorin (CHO-Aeq and HEK-Aeq) (Table 1). mRNA sequence integrity of EBI2 gene was checked using RT-PCR at T0 & T30 culture times in CHO cells.
We also confirmed activation of hEBI2 by 7b,25DHC in different CHO-Aeq cell backgrounds (Gqi5 and Gα16 (=WTA11)) (FIG. 14). […] Finally, we confirmed activation of hEBI2 by 7b,25DHC with hEBi2-HEK-Aeq Gα16 cells (pCAeqG9) and hEBi2 transiently transfected in HEK T cells (data not shown).

Assay [5] concerns the target T1, hEBI2. The assay can be described thus: luminescent aequorin functional assay, hEBI2 CHO-Aeq (Gqi5) cells. Set-up: expressed in transfected cells; host or cells: CHO-K1 expressing apoaequorin (CHO-Aeq) with Gqi5; line E2. The format is cell-based. The source says:
The human EBI2 was inserted into the pEFIN3 vector at the EcoRI and XbaI sites in the multiple cloning site. Mouse EBI2 was cloned using RT-PCR from mouse genomic DNA and corresponded to the Genbank accession number Q3U6B2. The mouse EBI2 was inserted into the pEFIN3 vector at the EcoRI and XbaI sites in the multiple cloning site. Plasmids expressing human and mouse EBI2 were stably transfected in CHO-K1 and HEK293 cells expressing the apoaequorin (CHO-Aeq and HEK-Aeq) (Table 1). mRNA sequence integrity of EBI2 gene was checked using RT-PCR at T0 & T30 culture times in CHO cells.
hEBI2 CHO-Aeq cell lines were screened in a luminescent aequorin functional assay against proprietary libraries of natural ligands and collection of tissue extracts.
3 oxysterol and 3 vitamin D3 compounds were tested for EBI2 activation in an aequorin assay.

Each structure is given as a SMILES string.

T1 sequence (P32249 whole entry): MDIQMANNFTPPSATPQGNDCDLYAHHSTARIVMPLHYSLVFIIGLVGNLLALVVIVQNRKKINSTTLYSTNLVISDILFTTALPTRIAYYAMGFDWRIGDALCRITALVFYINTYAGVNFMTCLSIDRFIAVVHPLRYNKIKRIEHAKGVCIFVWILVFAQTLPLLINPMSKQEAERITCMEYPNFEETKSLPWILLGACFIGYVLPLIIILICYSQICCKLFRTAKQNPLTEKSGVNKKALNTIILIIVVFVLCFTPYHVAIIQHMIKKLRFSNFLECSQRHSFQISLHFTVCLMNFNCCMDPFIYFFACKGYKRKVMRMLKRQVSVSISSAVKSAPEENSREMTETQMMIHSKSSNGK

Take `C[C@H](CCCC(C)(C)O)[C@H]1CC[C@H]2[C@@H]3[C@H](O)C=C4C[C@@H](O)CC[C@]4(C)[C@H]3CC[C@]12C` [7a,25DHC, cholest-5-ene-3b,7a,25-triol]: the “activation of MAP/ERK signaling pathway (p44/42 MAP kinase phosphorylation)” value in assay [1] was “potently activate”. In addition, the “migration of DCs from wild type animals towards compound” value in assay [2] is listed as “migrate”. Further, the EC50 in assay [3] amounted to 8 nM.

`C[C@H](CCCC(C)(C)O)[C@H]1CC[C@H]2[C@@H]3[C@@H](O)C=C4C[C@@H](O)CC[C@]4(C)[C@H]3CC[C@]12C` [7b,25DHC, cholest-5-ene-3b,7b,25-triol]: in assay [4], the “activation of mouse EBI2 receptor” value was “activation”. For the same compound, in assay [5] (ATP response = endogenous P2Y receptors), the “efficacy compared to the ATP response” value is listed as “greater than 100%”. Further, the “activation of hEBI2 in different CHO-Aeq cell backgrounds” value in assay [5] (Gqi5 and Gα16 (=WTA11)) was “activation”. Further, the “specificity and selectivity of hEBI2 activation” value in assay [5] (compared to WT CHO-AeqGqi5 cells and unrelated GPCRs HCR and GPR23) was “specifically and selectively activates”. Also, in assay [3], the “efficacy, β-arrestin recruitment” value was 48% and the EC50 worked out at 837 nM.

One may read the EC50 as the concentration that produces a half-maximal response.
